A short description of assay [1]: NIH-3T3 fibroblast cytotoxicity, dose response, cytotoxicity control, cell-based, fluorescence, Alamar Blue, secondary assay (AID 2327).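 Also: NIH-3T3 mouse fibroblasts cultured with fluconazole at 8 µg/mL.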 The format is functional.
In assay [2] the target is T1, Heat shock factor protein 1 (Mus musculus, UniProt P38532).
T1 sequence (P38532 whole entry): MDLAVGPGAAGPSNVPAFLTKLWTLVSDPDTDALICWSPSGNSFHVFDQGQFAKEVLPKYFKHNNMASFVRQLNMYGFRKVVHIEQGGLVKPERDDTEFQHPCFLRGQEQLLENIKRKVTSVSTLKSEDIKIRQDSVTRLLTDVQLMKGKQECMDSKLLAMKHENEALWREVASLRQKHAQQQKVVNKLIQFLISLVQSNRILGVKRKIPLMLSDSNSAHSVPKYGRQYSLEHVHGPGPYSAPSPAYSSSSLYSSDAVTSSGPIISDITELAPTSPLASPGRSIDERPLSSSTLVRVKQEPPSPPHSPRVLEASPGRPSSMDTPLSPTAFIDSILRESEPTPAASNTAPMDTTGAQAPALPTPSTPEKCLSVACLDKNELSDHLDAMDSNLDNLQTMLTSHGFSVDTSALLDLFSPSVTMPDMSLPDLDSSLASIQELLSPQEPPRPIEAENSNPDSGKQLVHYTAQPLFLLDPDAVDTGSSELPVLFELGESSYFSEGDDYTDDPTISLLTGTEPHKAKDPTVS
The experiment in a line: decrease of HSF1-responsive luciferase luminescence – cell-based, NIH3T3, dose retest, confirmation (AID 2382).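 Also: NIH3T3 fibroblasts with HSF1-driven luciferase reporter stressed by proteasome inhibitor MG132; luminescence from HSF1-driven luciferase expression after 8 hours of MG132 stress.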 The format is functional.

Assay [3] is described as follows: fluconazole-exposed Candida albicans growth modulators – fluorescence, retest, confirmation (AID 2467). The format is functional, cell-based.
Assay [4] is described as follows: Trypanosoma cruzi growth suppression in host cells – NIH3T3 host cells, beta-gal luminescence, confirmation (AID 2044).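 Also: intracellular parasites grown in NIH/3T3 mouse fibroblasts as host cells; luminescent beta-galactosidase reporter signal from transgenic T. cruzi replicating inside host cells; inhibitors lower the luminescence signal.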 The format is functional, cell-based.
In assay [5] the target is T2, Serine/threonine-protein phosphatase (Candida dubliniensis (strain CD36 / CBS 7987 / NCPF 3949 / NRRLY-17841) (Yeast), UniProt B9W6M3).
T2 sequence (B9W6M3 whole entry): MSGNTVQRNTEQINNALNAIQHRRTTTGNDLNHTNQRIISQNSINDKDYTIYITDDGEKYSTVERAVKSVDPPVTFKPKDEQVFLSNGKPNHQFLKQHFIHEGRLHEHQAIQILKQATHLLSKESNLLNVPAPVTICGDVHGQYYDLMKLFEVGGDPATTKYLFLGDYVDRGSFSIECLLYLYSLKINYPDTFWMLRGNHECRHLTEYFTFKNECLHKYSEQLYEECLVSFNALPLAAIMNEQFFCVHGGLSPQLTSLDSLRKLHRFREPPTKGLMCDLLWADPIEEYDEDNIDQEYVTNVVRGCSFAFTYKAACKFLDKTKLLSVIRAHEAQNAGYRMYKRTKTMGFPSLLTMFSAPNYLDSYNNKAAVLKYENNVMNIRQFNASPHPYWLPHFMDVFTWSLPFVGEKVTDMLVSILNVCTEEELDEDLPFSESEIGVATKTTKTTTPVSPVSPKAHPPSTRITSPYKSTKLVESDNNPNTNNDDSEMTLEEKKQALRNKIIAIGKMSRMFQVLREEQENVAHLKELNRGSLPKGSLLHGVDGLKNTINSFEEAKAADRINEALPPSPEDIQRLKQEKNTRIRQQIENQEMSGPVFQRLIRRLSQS
The experiment in a line: blockers of CaCl2-induced CDRE-lacZ signaling – S. cerevisiae, luminescence, secondary, dose response (AID 2388).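 Also: yeast reporter cells carrying a calcineurin-responsive lacZ construct stimulated with calcium chloride; luminescent beta-galactosidase reporter signal in whole cells rather than isolated phosphatase activity; potency for inhibition where a drop in reporter signal means calcineurin blockade.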 The format is functional, cell-based.

Assay [6] is described as follows: NIH3T3 cell viability loss – ATP luminescence, mouse fibroblasts, counter-screen, dose response (AID 2010).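 Also: cells exposed to compound for about 90 hours before reading.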 The format is functional, cell-based. In general terms: A counterscreen serves to expose hits that act by an unwanted route or on another target.
In the next assay the target is Nonstructural protein 1 (Influenza A virus, UniProt Q194T2). The format is functional, Influenza A virus (A/California/07/2009(H1N1)).
Chain of Nonstructural protein 1 (Q194T2 whole entry): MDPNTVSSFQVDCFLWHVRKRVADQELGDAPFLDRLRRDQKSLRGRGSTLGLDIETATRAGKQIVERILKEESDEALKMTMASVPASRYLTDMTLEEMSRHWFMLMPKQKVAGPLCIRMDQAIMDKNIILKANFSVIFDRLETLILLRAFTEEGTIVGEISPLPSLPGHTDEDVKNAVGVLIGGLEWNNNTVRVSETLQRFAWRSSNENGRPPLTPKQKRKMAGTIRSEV
The target in assay [7] is T3, Microphthalmia-associated transcription factor (Homo sapiens, UniProt O75030).
T3 sequence (O75030 whole entry): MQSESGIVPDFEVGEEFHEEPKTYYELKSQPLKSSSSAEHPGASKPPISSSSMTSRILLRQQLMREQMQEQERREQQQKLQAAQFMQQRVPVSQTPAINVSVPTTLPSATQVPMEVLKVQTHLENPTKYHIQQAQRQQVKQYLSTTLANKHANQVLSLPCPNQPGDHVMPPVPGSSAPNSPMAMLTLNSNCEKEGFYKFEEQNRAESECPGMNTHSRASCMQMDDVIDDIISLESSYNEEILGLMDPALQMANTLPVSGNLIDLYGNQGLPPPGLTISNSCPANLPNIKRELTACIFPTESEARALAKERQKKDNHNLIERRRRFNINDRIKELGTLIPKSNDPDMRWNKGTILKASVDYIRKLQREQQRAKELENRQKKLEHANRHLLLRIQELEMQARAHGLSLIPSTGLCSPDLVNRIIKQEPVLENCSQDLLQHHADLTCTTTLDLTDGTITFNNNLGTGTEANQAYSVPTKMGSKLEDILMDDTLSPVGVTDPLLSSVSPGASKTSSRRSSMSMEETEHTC
The assay is described as follows: reducers of TRPM1 reporter luminescence, concentration series – cell-based, SK-MEL-5, cherry-picked, set 3, MITF inhibitor project, dose response (AID 493073).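 Also: SK-MEL-5 melanoma cells with luciferase driven by the MITF target TRPM1 promoter.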 The format is functional.

The next assay relates to A-375. The assay is described as follows: MITF: Counter assay: A375 proliferation Measured in Cell-Based System Using Plate Reader - 2084-03_Inhibitor_Dose_DryPowder_Activity. [Related pubchem assays (depositor defined):AID488944]. The format is functional. As to conditions: Homo sapiens.
A further assay relates to INS1. The experiment in a line: INS-1E survival protection against cytokine death – cell-based, luminescence, retest, dose response (AID 449756).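 Also: cell death triggered by IL-1 beta plus TNF-alpha plus IFN-gamma mixture; protective hits raise ATP signal compared with cytokine alone wells.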 The format is functional. The settings on record: Rattus norvegicus.
Assay [8] addresses ATP-dependent molecular chaperone HSP82 (Candida albicans (strain WO-1) (Yeast), UniProt C4YTQ8). The assay is described as follows: steroid-induced GRE reporter decrease in yeast – S. cerevisiae, luminescence, Hsp90 inhibitor project, dose response (AID 2400).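 Also: beta-galactosidase luminescence from glucocorticoid response element reporter as proxy for Hsp90 function; inhibitor potency where signal loss means Hsp90 inhibition.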 The format is functional, cell-based.
Assay [9] is described as follows: reduction of Shn3 3'UTR-driven luciferase in osteoblasts – cell-based, Clone20 osteoblasts, firefly luciferase, cherry-picked, dose response (AID 624132).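 Also: firefly luciferase luminescence from reporter carrying the Shn3 3'UTR in osteoblasts.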 The format is functional.
The nature of assay [10]: loss of viability in HepG2 cells – cell-based, CellTiter-Glo, cherry-picked, cytotoxicity control for Shn3 inhibitor project, dose response (AID 624134). The format is functional. A general note: Cellular ATP, detected with luciferase, serves as a proxy for viable cell number.
Assay [11] is described as follows: non-specific 3'UTR reporter inhibition in Clone20-Shn3RL – cell-based, Renilla luciferase, cherry-picked, counter-screen for Shn3 inhibitor project, dose response (AID 624133). The format is functional.
Assay [12] deals with Photoreceptor-specific nuclear receptor (Homo sapiens, UniProt Q9Y5X4). The format is functional, cell-based.
Chain of Photoreceptor-specific nuclear receptor (Q9Y5X4 whole entry): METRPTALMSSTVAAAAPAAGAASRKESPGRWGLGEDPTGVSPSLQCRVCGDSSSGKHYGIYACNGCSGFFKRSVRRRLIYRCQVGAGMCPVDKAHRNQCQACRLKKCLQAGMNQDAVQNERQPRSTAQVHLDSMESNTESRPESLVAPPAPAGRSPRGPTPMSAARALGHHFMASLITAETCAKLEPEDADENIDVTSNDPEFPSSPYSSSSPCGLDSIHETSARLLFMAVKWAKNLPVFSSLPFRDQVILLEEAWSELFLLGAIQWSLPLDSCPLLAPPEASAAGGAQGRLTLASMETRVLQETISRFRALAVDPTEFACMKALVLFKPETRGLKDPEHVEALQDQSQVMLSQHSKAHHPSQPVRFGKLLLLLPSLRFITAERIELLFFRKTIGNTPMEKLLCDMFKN
Assay [13] has as its system Streptococcus sp. 'group A'. The experiment in a line: Streptococcus pyogenes SK(-)GAS viability under kanamycin – luminescence, BacTiterGlo, confirmation, counter-screen for streptokinase expression inhibitor project, dose response (AID 1900). The format is functional, organism-based.
For a further assay, the system named is Streptococcus. The experiment in a line: GAS UMAA2166 growth inhibition – luminescence, BacTiterGlo, counter-screen for streptokinase expression inhibitor project, dose response (AID 1915).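 Also: potency for reduction of bacterial viability or growth.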 The format is functional, organism-based.
Assay [14] addresses Voltage-dependent T-type calcium channel subunit alpha-1H (Homo sapiens, UniProt O95180). The format is functional.
Assay [15] is described as follows: cells. The format is functional, cell-based.
A short description of assay [16]: cells. The format is functional, cell-based. This is another data set of the same source.
A short description of assay [17]: HEK-293T viability loss after treatment – luminescence, T-cell screen hits, cytotoxicity control for TCR NF-kB inhibitor project, dose response (AID 489026).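 Also: cells exposed to compound about 14 hours before the viability readout.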 The format is functional, cell-based.
For assay [18], the target named is Heat shock protein HSP 90-alpha (Homo sapiens, UniProt P07900). The format is functional, organism-based.

Active and inactive are the calls of the source.

What is called EC50 is the midpoint of the concentration-response curve. Usually IC50 stands for the concentration at which inhibition is half-maximal. What is called AC50 is the concentration giving half of the maximal activity seen.

Chain of ATP-dependent molecular chaperone HSP82 (C4YTQ8 whole entry): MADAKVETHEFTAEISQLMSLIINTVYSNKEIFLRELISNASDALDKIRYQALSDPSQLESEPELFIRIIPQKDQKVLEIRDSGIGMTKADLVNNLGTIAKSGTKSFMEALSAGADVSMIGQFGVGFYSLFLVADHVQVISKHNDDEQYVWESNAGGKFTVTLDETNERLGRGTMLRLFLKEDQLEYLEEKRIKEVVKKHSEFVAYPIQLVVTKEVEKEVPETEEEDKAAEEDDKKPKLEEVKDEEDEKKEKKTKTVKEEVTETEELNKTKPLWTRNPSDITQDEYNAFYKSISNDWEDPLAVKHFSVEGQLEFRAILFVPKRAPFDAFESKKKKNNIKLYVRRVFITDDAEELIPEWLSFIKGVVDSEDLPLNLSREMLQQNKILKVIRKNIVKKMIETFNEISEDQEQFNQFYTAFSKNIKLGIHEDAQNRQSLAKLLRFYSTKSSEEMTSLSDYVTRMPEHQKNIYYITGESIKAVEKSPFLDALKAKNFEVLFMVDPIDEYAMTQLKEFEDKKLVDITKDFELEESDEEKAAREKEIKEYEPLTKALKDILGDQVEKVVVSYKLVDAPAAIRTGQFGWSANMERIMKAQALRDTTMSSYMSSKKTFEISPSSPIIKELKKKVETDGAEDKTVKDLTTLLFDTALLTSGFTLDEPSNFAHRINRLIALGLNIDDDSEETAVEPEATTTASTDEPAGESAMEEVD
Chain of Voltage-dependent T-type calcium channel subunit alpha-1H (O95180 whole entry): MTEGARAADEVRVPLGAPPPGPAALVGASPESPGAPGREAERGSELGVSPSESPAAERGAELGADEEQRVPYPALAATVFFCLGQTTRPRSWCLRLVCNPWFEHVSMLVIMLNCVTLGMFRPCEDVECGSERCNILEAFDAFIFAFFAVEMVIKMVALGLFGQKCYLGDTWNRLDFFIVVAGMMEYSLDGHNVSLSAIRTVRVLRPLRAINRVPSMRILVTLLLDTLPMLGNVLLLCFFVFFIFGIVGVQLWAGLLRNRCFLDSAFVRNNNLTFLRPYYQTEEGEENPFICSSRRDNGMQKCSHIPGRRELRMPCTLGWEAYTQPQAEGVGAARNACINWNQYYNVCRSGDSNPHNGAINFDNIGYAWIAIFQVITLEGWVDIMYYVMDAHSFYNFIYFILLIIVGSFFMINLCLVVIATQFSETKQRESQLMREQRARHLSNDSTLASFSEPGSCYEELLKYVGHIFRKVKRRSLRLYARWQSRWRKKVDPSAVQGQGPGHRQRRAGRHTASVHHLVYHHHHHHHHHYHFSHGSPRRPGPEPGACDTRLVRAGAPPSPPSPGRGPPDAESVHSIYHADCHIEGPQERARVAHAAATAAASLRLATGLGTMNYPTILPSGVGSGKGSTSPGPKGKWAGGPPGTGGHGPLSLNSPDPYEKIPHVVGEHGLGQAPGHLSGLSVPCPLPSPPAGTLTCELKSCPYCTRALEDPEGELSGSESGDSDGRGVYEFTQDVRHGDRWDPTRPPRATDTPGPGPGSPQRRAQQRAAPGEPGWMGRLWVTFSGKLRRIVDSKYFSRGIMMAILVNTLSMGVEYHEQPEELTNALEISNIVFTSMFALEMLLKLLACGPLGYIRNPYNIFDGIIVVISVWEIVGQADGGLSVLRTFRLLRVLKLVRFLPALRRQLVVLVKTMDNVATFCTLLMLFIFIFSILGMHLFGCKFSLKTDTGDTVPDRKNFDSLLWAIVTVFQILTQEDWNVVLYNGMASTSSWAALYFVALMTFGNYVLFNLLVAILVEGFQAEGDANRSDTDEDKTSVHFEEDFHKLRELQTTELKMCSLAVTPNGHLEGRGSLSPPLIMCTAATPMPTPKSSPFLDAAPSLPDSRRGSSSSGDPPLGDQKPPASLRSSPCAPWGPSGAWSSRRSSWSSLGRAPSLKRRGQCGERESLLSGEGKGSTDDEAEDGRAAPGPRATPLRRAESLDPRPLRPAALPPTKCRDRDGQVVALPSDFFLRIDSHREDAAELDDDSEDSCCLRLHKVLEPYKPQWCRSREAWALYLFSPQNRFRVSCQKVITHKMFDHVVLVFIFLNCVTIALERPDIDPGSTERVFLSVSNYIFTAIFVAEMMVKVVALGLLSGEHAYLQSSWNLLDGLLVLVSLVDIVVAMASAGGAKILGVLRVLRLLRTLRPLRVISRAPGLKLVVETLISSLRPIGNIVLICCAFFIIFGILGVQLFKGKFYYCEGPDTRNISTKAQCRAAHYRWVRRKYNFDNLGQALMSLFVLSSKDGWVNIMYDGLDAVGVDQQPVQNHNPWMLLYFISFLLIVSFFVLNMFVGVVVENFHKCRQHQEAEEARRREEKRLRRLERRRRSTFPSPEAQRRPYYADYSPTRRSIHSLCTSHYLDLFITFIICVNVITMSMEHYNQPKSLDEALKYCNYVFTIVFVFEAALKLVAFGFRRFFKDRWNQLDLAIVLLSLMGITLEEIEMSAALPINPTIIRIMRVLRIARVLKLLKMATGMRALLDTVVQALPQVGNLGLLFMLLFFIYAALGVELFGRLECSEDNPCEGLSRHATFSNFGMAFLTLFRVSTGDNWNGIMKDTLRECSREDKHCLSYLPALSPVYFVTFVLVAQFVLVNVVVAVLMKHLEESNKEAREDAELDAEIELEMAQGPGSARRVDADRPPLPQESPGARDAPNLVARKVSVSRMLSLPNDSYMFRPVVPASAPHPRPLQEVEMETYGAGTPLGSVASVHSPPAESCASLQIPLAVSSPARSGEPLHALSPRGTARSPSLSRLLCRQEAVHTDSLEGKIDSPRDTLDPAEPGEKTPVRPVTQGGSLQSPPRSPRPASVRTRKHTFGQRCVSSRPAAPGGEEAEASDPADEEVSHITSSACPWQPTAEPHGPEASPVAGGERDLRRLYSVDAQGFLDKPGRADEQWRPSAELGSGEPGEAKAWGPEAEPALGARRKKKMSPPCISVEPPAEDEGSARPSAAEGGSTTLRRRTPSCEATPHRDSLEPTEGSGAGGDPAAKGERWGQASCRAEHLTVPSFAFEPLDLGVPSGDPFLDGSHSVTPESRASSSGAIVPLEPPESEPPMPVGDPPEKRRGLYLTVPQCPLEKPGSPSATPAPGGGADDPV

As for `O=[N+]([O-])c1cc(CN2CCN(c3ccccc3)CC2)c(O)c2ncccc12`, the EC50 in assay [1] was 23 µM (inconclusive); in [2] it was > 195 µM (not active); in [3], 0.201 µM (active); in [4], 0.295 µM (active); in [5], > 180 µM (inactive); in assay [6], 0.809 µM (active). Further, the half-maximal effective concentration (EC50) in assay [8] is 18 µM (active). Besides, the IC50 at Nonstructural protein 1 is 3.42 µM (active); in assay [12], 13.9 µM (inactive). The concentration at half-maximal activity (AC50) is 8.3 µM (active) in [7]; 49.4 µM (active) in the assay with A-375; 1.17 µM (active) in the assay with INS1; 1.99 µM (active) in [9]; 3.74 µM (active) in [10]; 2.28 µM (active) in [11].
Take `COc1ccc(-c2nnc(NC(=O)c3cc(Cl)ccc3Cl)o2)cc1`: the EC50 in assay [1] was > 150 µM (inactive); in assay [13], 2.64 µM (active); in assay [3] it was 0.815 µM (active); in assay [5] it was > 180 µM (inactive); in the assay on Streptococcus, 7.89 µM (active); in assay [14] it was 10.8 µM (active). Besides, in assay [8], the EC50 was 18 µM (active).
With `O=C(N/N=C/c1c(O)ccc2ccccc12)c1cccc(C(F)(F)F)c1`, the EC50 in assay [1] is 26.9 µM (active); in the assay “cells [15]” it was 8.23 µM (active); in [3], 0.452 µM (active); in assay [4] it was 0.686 µM (active); in “cells [16]”, > 350 µM (not active); in [5], > 180 µM (inactive). Besides, the EC50 in assay [6] was 6.11 µM (active); in [8] it was 9.34 µM (active). In [17], the IC50 is > 80 µM (inactive). Moreover, the AC50 in [18] was 2.24 µM (active).

(Values after ChEMBL document CHEMBL1201862, “PubChem BioAssay data set” (2004).)
